Biological target: CXCR3 (Macaca fascicularis, UniProt A0A2K5UV19)
Assay: functional cellular assay measuring calcium flux in CXCR3 transfected cells (block of CXCR3/IP-10 interaction)
Type: cell-based
Settings: IP-10 induced intracellular calcium flux; Cyno-CHO cells stably expressing recombinant CXCR3 and G-alpha-16
Procedure: Compounds are assessed for the ability to block the interaction of CXCR3 and IP-10 in a functional cellular assay measuring calcium flux in CXCR3 transfected cells.
Cyno-CHO cells, stably expressing recombinant CXCR3 and G-alpha-16 are grown in F12 medium (Mediatech #45000-360) supplemented with 10% (V/V) FBS (Mediatech #35-01500), 1% Geneticin (Invitrogen #10131-027) and 0.2% Zeocin (Invitrogen #R250-05). The cells are spun down and re-suspended in growth media to a concentration of 4.8 E5 cells/mL. 25 microL of cell suspension is added to each well of a BD-384-well TC treated plate, providing 12,000 cells/well. The plate is incubated at 37° C./5% CO2 overnight. On the day of the assay, the plates are removed, the media is flicked out and 25 microL of Ca-4 dye in assay buffer (HBSS, 10 mM HEPES ph 7.4), containing 2 mM probenacid is added to each well. The cell assay plates are then incubated at 37° C./5% CO2 for one hour.
Test compounds are dissolved in DMSO and diluted to 1.045 mM in DMSO. Just prior to assay, 2.75 microL of appropriately diluted test compound are added to each well of a 384 well plate containing 45 microL of HBSS buffer. After mixing, 5 microL of diluted compound are added to each well of the cell assay plate for a final assay concentration of 10 microM. The plate is incubated at room temperature for 15 min. 10 microL of IP-10 stock solution in HBSS (4× EC80 concentration) are added to each well of the cell assay plate except those cells reserved as blank wells containing buffer only. Intracellular calcium flux is recorded on the HAMAMTSU FDSS6000, using excitation at 480 nm and emission at 540 nm. Data are analyzed using Activity Base software.
In general, the preferred potency range (IC50) of compounds in the above assay is between 1 nM to 3 μM, and the most preferred potency range is 1 nM to 20 nM.

Chain of CXCR3 (A0A2K5UV19 entry or part of it): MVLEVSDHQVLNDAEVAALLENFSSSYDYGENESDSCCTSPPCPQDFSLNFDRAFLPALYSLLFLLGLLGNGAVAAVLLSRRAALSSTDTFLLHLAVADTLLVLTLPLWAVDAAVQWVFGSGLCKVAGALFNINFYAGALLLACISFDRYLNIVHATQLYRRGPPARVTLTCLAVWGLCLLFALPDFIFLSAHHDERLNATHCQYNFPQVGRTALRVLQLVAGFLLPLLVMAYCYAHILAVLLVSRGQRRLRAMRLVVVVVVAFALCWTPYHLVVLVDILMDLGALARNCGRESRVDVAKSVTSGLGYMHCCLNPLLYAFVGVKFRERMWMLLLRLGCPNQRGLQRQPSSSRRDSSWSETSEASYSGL

`COc1cc(NC(=O)c2ccccc2N2CCN(C(=O)Cn3nc(C)cc3C)[C@@H](C)C2)ccn1` [2-{(S)-4-[2-(3,5-Dimethyl-pyrazol-1-yl)-acetyl]-3-methyl-piperazin-1-yl}-N-(2-methoxy-pyridin-4-yl)-benzamide] gave an IC50 of 21 nM.
`O=C(Nc1ccnc(OCC(F)(F)F)c1)c1ccccc1N1CCN(C(=O)CN2CCCCC2=O)CC1` [2-{4-[2-(2-Oxo-piperidin-1-yl)-acetyl]-piperazin-1-yl}-N-[2-(2,2,2-trifluoro-ethoxy)-pyridin-4-yl]-benzamide] showed an IC50 of 7.8 nM.
Work on `Cc1cc(C)n(CC(=O)N2CCN(c3ccccc3C(=O)Nc3ccnnc3)CC2)n1` [2-{4-[2-(3,5-Dimethyl-pyrazol-1-yl)-acetyl]-piperazin-1-yl}-N-pyridazin-4-yl-benzamide] yielded an IC50 of 17 nM.
`O=C(Nc1ccncc1)c1ccccc1N1CCN(C(=O)Cc2cn3ccccc3n2)CC1` [2-[4-(2-Imidazo[1,2-a]pyridin-2-yl-acetyl)-piperazin-1-yl]-N-pyridin-4-yl-benzamide] was tested, and the IC50 was 16 nM.
`O=C(NCC(=O)N1CCN(c2ccccc2C(=O)Nc2cccnc2)CC1)c1ccc2c(c1)OCO2` [Benzo[1,3]dioxole-5-carboxylic acid (2-oxo-2-{4-[2-(pyridin-3-ylcarbamoyl)-phenyl]-piperazin-1-yl}-ethyl)-amide] showed an IC50 of 13.3 nM.
With `Cc1cc(C)n(CC(=O)N2CCN(c3ccccc3NC(=O)c3ccc(Oc4ccccc4)nc3)CC2)n1` [N-(2-{4-[2-(3,5-Dimethyl-pyrazol-1-yl)-acetyl]-piperazin-1-yl}-phenyl)-6-phenoxy-nicotinamide] the IC50 was 9.1 nM.
`Cc1cc(C)n(CC(=O)N2CCN(c3ccccc3C(=O)Nc3ccnc(C(C)(C)C)c3)CC2)n1` [N-(2-tert-Butyl-pyridin-4-yl)-2-{4-[2-(3,5-dimethyl-pyrazol-1-yl)-acetyl]-piperazin-1-yl}-benzamide] showed an IC50 of 8.5 nM.
Work on `Cc1cc(C)n(CC(=O)N2CCN(c3ccccc3C(=O)Nc3cnc4c(cnn4C(C)C)c3)CC2)n1` [2-{4-[2-(3,5-Dimethyl-pyrazol-1-yl)-acetyl]-piperazin-1-yl}-N-(1-isopropyl-1H-pyrazolo[3,4-b]pyridin-5-yl)-benzamide] yielded an IC50 of 11.5 nM.
In the case of `O=C(Nc1ccc(C(F)(F)F)nc1)c1ccccc1N1CCN(C(=O)CN2CCCCC2=O)CC1` [2-{4-[2-(2-Oxo-piperidin-1-yl)-acetyl]-piperazin-1-yl}-N-(6-trifluoromethyl-pyridin-3-yl)-benzamide], the IC50 is reported as 3 nM.
Molecule `Cc1cc(C)n(CC(=O)N2CCN(c3ccccc3C(=O)Nc3ccc(C(F)(F)F)nc3)CC2)n1` [2-{4-[2-(3,5-Dimethyl-pyrazol-1-yl)-acetyl]-piperazin-1-yl}-N-(6-trifluoromethyl-pyridin-3-yl)-benzamide] has an IC50 of 11 nM.
Work on `COc1cccc(C(=O)NCC(=O)N2CCN(c3ccccc3C(=O)Nc3ccncc3)CC2)c1OC` [2,3-Dimethoxy-N-(2-oxo-2-{4-[2-(pyridin-4-ylcarbamoyl)-phenyl]-piperazin-1-yl}-ethyl)-benzamide] yielded an IC50 of 3.7 nM.
`Cc1cc(C)n(CC(=O)N2CCN(c3ccccc3C(=O)Nc3cnc4c(c3)c(=O)n(C)c(=O)n4C)CC2)n1` [N-(1,3-Dimethyl-2,4-dioxo-1,2,3,4-tetrahydro-pyrido[2,3-d]pyrimidin-6-yl)-2-{4-[2-(3,5-dimethyl-pyrazol-1-yl)-acetyl]-piperazin-1-yl}-benzamide] was tested, and the IC50 was 11.5 nM.
In the case of `Cc1cc(C)n(CC(=O)N2CCN(c3ccccc3NC(=O)c3cccnc3)CC2)n1` [N-(2-{4-[2-(3,5-Dimethyl-pyrazol-1-yl)-acetyl]-piperazin-1-yl}-phenyl)-nicotinamide], the IC50 is reported as 15 nM.
Molecule `O=C(Nc1ccncc1)c1ccccc1N1CCN(C(=O)CNc2ccccc2)CC1` [2-[4-(2-Phenylamino-acetyl)-piperazin-1-yl]-N-pyridin-4-yl-benzamide] has an IC50 of 19 nM.
With `O=C(Nc1ccncc1)c1ccccc1N1CCN(C(=O)Cc2cccc3cccnc23)CC1` [N-Pyridin-4-yl-2-[4-(2-quinolin-8-yl-acetyl)-piperazin-1-yl]-benzamide] the IC50 was 14 nM.
In the case of `O=C(Nc1cnc2ccccc2c1)c1ccccc1N1CCN(C(=O)Cn2ccc3cccnc32)CC1` [2-[4-(2-Pyrrolo[2,3-b]pyridin-1-yl-acetyl)-piperazin-1-yl]-N-quinolin-3-yl-benzamide], the IC50 is reported as 8.4 nM.
`Cc1cc(C)n(CC(=O)N2CCN(c3ccccc3C(=O)Nc3ccnc(OCC(F)(F)F)c3)CC2)n1` [2-{4-[2-(3,5-Dimethyl-pyrazol-1-yl)-acetyl]-piperazin-1-yl}-N-[2-(2,2,2-trifluoro-ethoxy)-pyridin-4-yl]-benzamide] showed an IC50 of 8.8 nM.
Molecule `Cc1cc(C)n(CC(=O)N2CCN(c3ccccc3NC(=O)c3ccncc3)CC2)n1` [N-(2-{4-[2-(3,5-Dimethyl-pyrazol-1-yl)-acetyl]-piperazin-1-yl}-phenyl)-isonicotinamide] has an IC50 of 7.6 nM.
With `O=C(Nc1cc(Cl)cnc1N1CCN(C(=O)Cn2ccc3cccnc32)CC1)c1cccc(C(F)(F)F)c1` [N-{5-Chloro-2-[4-(2-pyrrolo[2,3-b]pyridin-1-yl-acetyl)-piperazin-1-yl]-pyridin-3-yl}-3-trifluoromethyl-benzamide] the IC50 was 8.9 nM.
With `Cc1cc(C)n(CC(=O)N2CCN(c3ccccc3C(=O)Nc3cc(-c4ccccc4)no3)CC2)n1` [2-{4-[2-(3,5-Dimethyl-pyrazol-1-yl)-acetyl]-piperazin-1-yl}-N-(3-phenyl-isoxazol-5-yl)-benzamide] the IC50 was 8.8 nM.
With `Cc1cc(C)n(CC(=O)N2CCN(c3ccccc3C(=O)Nc3nc4c(s3)CN(C)CC4)CC2)n1` [2-{4-[2-(3,5-Dimethyl-pyrazol-1-yl)-acetyl]-piperazin-1-yl}-N-(5-methyl-4,5,6,7-tetrahydro-thiazolo[5,4-c]pyridin-2-yl)-benzamide] the IC50 was 9.7 nM.
`CS(=O)(=O)c1ccc(NC(=O)c2ccccc2N2CCN(C(=O)Cn3ccc4cccnc43)CC2)cc1` [N-(4-Methanesulfonyl-phenyl)-2-[4-(2-pyrrolo[2,3-b]pyridin-1-yl-acetyl)-piperazin-1-yl]-benzamide] showed an IC50 of 7.4 nM.
For `Cc1cc(C)n(CC(=O)N2CCN(c3ccccc3C(=O)Nc3nc(C)c(C(C)(C)C)s3)CC2)n1` [N-(5-tert-Butyl-4-methyl-thiazol-2-yl)-2-{4-[2-(3,5-dimethyl-pyrazol-1-yl)-acetyl]-piperazin-1-yl}-benzamide], the IC50 was 11 nM.
Work on `O=C(Nc1ccncc1)c1ccccc1N1CCN(C(=O)Cn2ncc3ccccc3c2=O)CC1` [2-{4-[2-(1-Oxo-1H-phthalazin-2-yl)-acetyl]-piperazin-1-yl}-N-pyridin-4-yl-benzamide] yielded an IC50 of 6.1 nM.
`Cc1cc(C(=O)NCC(=O)N2CCN(c3ccccc3C(=O)Nc3ccncc3)CC2)n(C)n1` [2,5-Dimethyl-2H-pyrazole-3-carboxylic acid (2-oxo-2-{4-[2-(pyridin-4-ylcarbamoyl)-phenyl]-piperazin-1-yl}-ethyl)-amide] showed an IC50 of 5.4 nM.
`Cc1cc(C)n(CC(=O)N2CCN(c3ccccc3C(=O)Nc3cc(C(C)(C)C)n[nH]3)CC2)n1` [N-(5-tert-Butyl-2H-pyrazol-3-yl)-2-{4-[2-(3,5-dimethyl-pyrazol-1-yl)-acetyl]-piperazin-1-yl}-benzamide] was tested, and the IC50 was 4.8 nM.
Work on `Cc1cc(C)n(CC(=O)N2CCCN(c3ncc(Cl)cc3NC(=O)c3cccc(Cl)c3)CC2)n1` [3-Chloro-N-(5-chloro-2-{4-[2-(3,5-dimethyl-pyrazol-1-yl)-acetyl]-[1,4]diazepan-1-yl}-pyridin-3-yl)-benzamide] yielded an IC50 of 15 nM.
